Results on one molecule are retold here after patent US11439625B2, “Combination therapy for proliferative diseases” (Avexxin AS, priority 2016, dated 2022).

For this test, the system named is MDA-MB-468 cell line. Briefly: Resazurin viability assay. The test is classed as cell-based. Particulars: co-treatment with BEZ235, sub-toxic doses combined, 24 hrs, MDA-MB-468 cells (FIG. 1). How it is done: Cell Culture. The MDA-MB-468 cell line was from ATCC. This cell line was established from a pleural effusion of patient with metastatic breast adenocarcinoma. The cells were maintained in RPMI medium supplemented with 10% (v/v) FBS, 0.3 mg/mL L-glutamine, and 0.1 mg/mL gentamicin at 37° C. in 5% CO2. Sub-culture using trypsin-EDTA was performed every 3-4 days with a split ratio of 1:3-1:6 to ensure actively proliferating cells.
Resazurin Viability Assay. Cells were seeded in fully supplemented medium at a density of 7 000 cells per well in 96 well plates. After 24 hrs of cultivation, when the cells were ˜60% confluent, the medium was replaced with serum free medium to ensure synchronization of the cells and to increase cell sensitivity to treatment. Following 16 hrs of serum starvation, the medium was replaced with fresh serum free medium with or without Compounds 1 and 2 (Avexxin, Norway), and NVP-BEZ235 (Cayman Chemicals, US) or solvent (DMSO, Sigma Aldrich, US). The cells were observed under the microscope to evaluate possible morphology changes and signs of stress before the addition of resazurin according to the manufacturers instructions (RnD Systems, UK). Resazurin was metabolized for 2 hrs (37° C., 5% CO2) before fluorescence was read at 544 nm excitation and 590 nm emission wavelengths (BioTek Synergy HT).
(Alamar Blue is a resazurin reagent that responds to reducing activity.)

`CCCCCCCOc1ccc(OCC(=O)c2nc(C(=O)OC)cs2)cc1` [Compound 1]: the “synergistic effects on breast cancer cell viability compared to each inhibitor alone” value was “synergistic effects”. Further, the “synergistic effects on breast cancer cell viability compared to each inhibitor alone” value (listed as compound 1) is listed as “the synergistic effect is pronounced”.
